Source: publication PMC10931776, “Modes of Interactions with DNA/HSA Biomolecules and Comparative Cytotoxic Studies of Newly Synthesized Mononuclear Zinc(II) and Heteronuclear Platinum(II)/Zinc(II) Complexes toward Colorectal Cancer Cells” (International Journal of Molecular Sciences, 2024)

Experiments:
[1] = target: T1, Human serum albumin (HSA) (Homo sapiens, UniProt P02768); experiment: HSA fluorescence quenching; format: binding; settings: HSA 2 µM, complex 0–30 µM, PBS pH 7.4, room temperature, λex 295 nm
T1 construct: reagents in general came from Sigma-Aldrich, Acros Organics or Merck
Description: Human serum albumin (HSA) produces a fluorescence signal when excited at 295 nm due to the tryptophan residues. This characteristic makes fluorescence spectroscopy an effective tool for studying complex interactions involving HSA. If the examined complex interacts with HSA, an increasing concentration of the complex will lead to a decrease in fluorescence, as shown in Figure 4 and Figures S14–S17. […] The Stern–Volmer equation (Equation (S2)) was used to determine the Stern–Volmer constant, Ksv, for the HSA interactions.
The binding affinity of the complexes C1–C5 to HSA has been determined through fluorescence quenching experiments. The measurements were conducted in a 0.01 M PBS with a pH of 7.4 at room temperature. The HSA concentration was kept constant at 2 μM while the concentration of complexes C1–C5 was increased from 0 to 30 μM, resulting in a significant decrease in emissions at 352 nm. Before each measurement, the system was shaken at room temperature. The fluorescence intensity was measured with the wavelength of excitation at 295 nm and recorded in the 300 to 500 nm range. The width of the excitation and emission slits (10 nm) and scan rate were maintained at a constant rate. The Stern–Volmer constants, Ksv, were determined by Equation (2).

CT-DNA = experiment: Ethidium bromide/CT-DNA fluorescence quenching (EB displacement); format: binding; settings: EB/CT-DNA 1:1, 5 µM, PBS pH 7.4, room temperature, λex 527 nm, λem 612 nm
Description: Fluorescent spectroscopy allows the determination of the intercalation potential of compounds. Intercalation involves planar aromatic molecules binding between the base pairs of DNA chains, causing them to elongate. Ethidium bromide (EB) is commonly used as a DNA intercalator and produces high levels of fluorescent emissions at 612 nm when intercalating between DNA strands. However, the addition of compounds that can intercalate between DNA strands and suppress the effects of EB will reduce fluorescent emissions. If a complex is able to replace EB, fluorescence reduction will occur, indicating the complex’s ability to bind intercalatively. Figure 3 and Figures S10–S13 show the results of fluorescence titrations in the presence of intercalator EB, where the emission intensity of a constant CT-DNA/EB solution concentration of 5 µM was monitored with increasing complex concentration up to a ratio of 5.
To determine whether the complex could displace EB from the CT-DNA-EB complex, the interactions of the complex with CT-DNA were examined in the presence of EB. The CT-DNA-EB solution was formed by combining EB and CT-DNA solutions with a concentration of 5 μM at a pH of 7.4. The impact of the complex binding to the CT-DNA was measured by analyzing the fluorescence emission spectrum after the addition of the examined complexes solution in increasing concentration, Figure 3.
The binding affinity of the complexes C1–C5 to CT-DNA via intercalation was determined using fluorescence spectroscopy. All measurements were conducted at room temperature in 0.01 M PBS with a pH of 7.4. Fluorescence measurements were performed by adding increasing complex concentrations (0–50 μM) to a CT-DNA and EB solution. Before each measurement, the system was shaken at room temperature. The fluorescence intensity was measured with the wavelength of excitation at 527 nm and the wavelength of emission at 612 nm. The width of the excitation and emission slits (10 nm) and scan rate were maintained at a constant rate. The emission of the solution was recorded in the range of 550 to 750 nm. The Stern–Volmer constants, Ksv, were determined by Equation (2). I0/I = 1 + Ksv[Q](2) [Q] is the concentration of the complex, I0 and I represent emission intensities in the absence and presence of complex, and Ksv is the Stern–Volmer constant obtained from the slope of the plot of I0/I vs. [Q] [25, 26, 27, 28].

[2] = test system: human colorectal carcinoma (SW480); experiment: MTT cytotoxicity assay, SW480; format: cell-based; settings: 48 h
Method: (§1) The in vitro cytotoxicity of newly synthesized mono- and heteronuclear platinum(II)/and zinc(II) complexes, featuring a 4,4′,4″-tri-tert-butyl-2,2′:6′,2″-terpyridine ligand (designated as C1–C5), was assessed using MTT assay procedures. This evaluation targeted various cell lines: mouse colorectal carcinoma (CT26), human colorectal carcinoma (HCT116 and SW480), and non-cancerous mouse mesenchymal stem cells (mMSC). These cell lines were exposed to synthesized complexes for 48 h, with concentrations ranging from 1.17 to 150 μM.
(§2) In our study, various cell lines were cultured, including mouse colorectal carcinoma (CT26), human colorectal carcinoma (HCT116 and SW480) obtained from ATCC, USA, and mouse mesenchymal stem cells (mMSC, Gibco), New York, NY, USA). These cell lines were consistently maintained in complete Dulbecco’s Modified Eagle Medium (DMEM) supplemented with 10% fetal bovine serum (FBS) (Sigma Aldrich, St. Louis, MO, USA), 100 IU/mL penicillin, and 100 μg/mL streptomycin antibiotics (Invitrogen, Carlsbad, CA, USA). The cultures were incubated at 37 °C in a humidified atmosphere of 5% carbon dioxide (CO2). […] The viability and count of the cells were determined using Trypan blue staining, ensuring the accuracy and reliability of the experimental outcomes.
(§3) The cytotoxic effects of five newly synthesized complexes, alongside cisplatin, were assessed through the MTT assay method, in line with previously established protocols. During the exponential growth phase, cells were collected from culture flasks, counted, and then seeded in 96-well culture plates at a density of 5·10^3 cells per well. Subsequent treatment involved exposing these cells to varying concentrations of the newly synthesized complexes and cisplatin (ranging from 1.17 to 150 μM) for a duration of 48 h, with fresh complete medium serving as the control. The results were quantified relative to the control (untreated cells), providing a comparative measure of cytotoxicity. Additionally, IC50 values, representing the concentration required to inhibit 50% of the cell viability, were calculated using Microsoft Office Excel 2010. Lastly, the data were presented as percentages of viable cells in accordance with the methodology outlined in the referenced study, facilitating a comprehensive understanding of the anticancer potential of these compounds.

[3] = test system: mouse mesenchymal stem cells (mMSC); experiment: MTT cytotoxicity assay, mMSC; format: cell-based; settings: 48 h
Method: as §1
In the context of developing low-toxicity drugs, it is imperative to evaluate the antiproliferative activity against normal cells. The in vitro toxicity of the tested complexes toward normal mouse mesenchymal stem cells (mMSC) was examined. […] These findings indicate the possibility of enhanced in vivo tolerance for this complex.
as §2, §3

[4] = test system: mouse colorectal carcinoma (CT26); experiment: MTT cytotoxicity assay, CT26; format: cell-based; settings: 48 h
Method: as §1, §2, §3

[5] = test system: human colorectal carcinoma (HCT116); experiment: MTT cytotoxicity assay, HCT116; format: cell-based; settings: 48 h
Method: as §1, §2, §3

T1 sequence (P02768 25-609): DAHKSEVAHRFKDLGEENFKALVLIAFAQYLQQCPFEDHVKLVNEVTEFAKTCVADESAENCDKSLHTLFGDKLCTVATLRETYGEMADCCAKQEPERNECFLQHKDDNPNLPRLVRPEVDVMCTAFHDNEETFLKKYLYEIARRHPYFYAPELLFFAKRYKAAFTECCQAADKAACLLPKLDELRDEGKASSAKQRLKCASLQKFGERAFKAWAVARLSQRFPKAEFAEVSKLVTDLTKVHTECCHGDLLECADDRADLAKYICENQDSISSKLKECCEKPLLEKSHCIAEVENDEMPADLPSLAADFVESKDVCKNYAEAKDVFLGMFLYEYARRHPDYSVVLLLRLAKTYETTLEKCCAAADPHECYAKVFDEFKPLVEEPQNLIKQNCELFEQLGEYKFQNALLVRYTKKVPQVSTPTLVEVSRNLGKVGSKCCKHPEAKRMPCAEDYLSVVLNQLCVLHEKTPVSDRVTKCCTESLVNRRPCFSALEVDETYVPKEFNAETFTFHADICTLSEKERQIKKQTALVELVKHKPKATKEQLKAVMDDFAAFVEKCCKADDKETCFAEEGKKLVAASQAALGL

Stern–Volmer constant Ksv, HSA [1]: 1.8 ± 0.1 10^4 M^–1
Substance: [ZnCl2(terpy^t^Bu)] [C1]
Stern–Volmer constant Ksv, CT-DNA (CT-DNA): 2.2 ± 0.1 10^4 M^–1
Selectivity Index (IC50 mMSC/IC50), SW480 [2]: 0.5
IC50 ([2]; read-out: IC50 ± SEM, SW480): 106 ± 126 µM
Cytotoxic effect on mMSC compared to cancer cells (HCT116, SW480, CT26) ([3]; concentrations 1.17 to 18.75 μM): lower cytotoxic effect
IC50 ([3]; non-cancerous cells, read-out: IC50 ± SEM, mMSCs): 56.7 ± 6.93 µM
Selectivity Index (IC50 mMSC/IC50), CT26 [4]: 1.3
IC50 ([4]; read-out: IC50 ± SEM, CT26): 44.7 ± 58.7 µM
Selectivity Index (IC50 mMSC/IC50), HCT 116 [5]: 0.6
IC50 ([5]; read-out: IC50 ± SEM, HCT 116): 88.2 ± 48.5 µM
